The results in this text go back to patent publication US8614201B2 (Janssen Pharmaceutica NV, priority 2009, dated 2013).

Chain of Human TRPA1 (O75762 whole entry): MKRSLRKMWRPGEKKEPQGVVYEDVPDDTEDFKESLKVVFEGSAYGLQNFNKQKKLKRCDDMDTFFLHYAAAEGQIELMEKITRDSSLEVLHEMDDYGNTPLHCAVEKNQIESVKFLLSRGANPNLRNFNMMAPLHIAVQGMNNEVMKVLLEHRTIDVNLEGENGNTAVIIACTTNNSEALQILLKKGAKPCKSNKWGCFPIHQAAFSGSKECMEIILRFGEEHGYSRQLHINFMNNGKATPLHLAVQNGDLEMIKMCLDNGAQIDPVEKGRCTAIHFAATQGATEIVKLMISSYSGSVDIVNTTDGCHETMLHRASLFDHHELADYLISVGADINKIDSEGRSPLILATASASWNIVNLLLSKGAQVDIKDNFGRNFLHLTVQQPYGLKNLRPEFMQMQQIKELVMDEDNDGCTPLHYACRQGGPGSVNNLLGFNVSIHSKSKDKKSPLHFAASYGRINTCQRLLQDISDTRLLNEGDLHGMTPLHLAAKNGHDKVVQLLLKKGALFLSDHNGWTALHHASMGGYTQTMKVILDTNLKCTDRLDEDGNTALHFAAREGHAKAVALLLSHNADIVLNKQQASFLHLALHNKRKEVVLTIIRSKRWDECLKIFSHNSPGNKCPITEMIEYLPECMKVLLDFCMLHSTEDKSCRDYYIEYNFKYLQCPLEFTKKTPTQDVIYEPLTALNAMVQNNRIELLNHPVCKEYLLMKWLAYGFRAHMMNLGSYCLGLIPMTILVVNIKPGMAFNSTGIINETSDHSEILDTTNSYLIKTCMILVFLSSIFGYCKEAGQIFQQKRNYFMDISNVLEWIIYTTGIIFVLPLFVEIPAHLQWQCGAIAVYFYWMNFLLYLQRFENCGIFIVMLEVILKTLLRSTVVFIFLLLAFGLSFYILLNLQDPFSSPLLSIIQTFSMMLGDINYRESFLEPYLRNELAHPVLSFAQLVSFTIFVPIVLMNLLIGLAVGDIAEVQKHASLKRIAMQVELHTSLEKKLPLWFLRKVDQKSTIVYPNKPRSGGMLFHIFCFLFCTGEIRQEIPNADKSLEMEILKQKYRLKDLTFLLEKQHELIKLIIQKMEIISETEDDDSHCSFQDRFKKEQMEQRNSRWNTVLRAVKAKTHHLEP

The test addresses Human TRPA1 (Homo sapiens, UniProt O75762). The test is described as follows: Assay 1: In vitro cellular testing of TRPA1 modulation (CHO-TREx, Fluo-3 calcium fluorescence, AITC agonist). The format is cell-based. The arrangement: expressed in transfected cells; host or cells: CHO-TREx cells (Invitrogen), vector pcDNA4/TO. To be noted: CHO-TREx cells expressing human TRPA1; Fluo-3 fluorescence (FLIPR/Tetra); agonist 15 μM allyl isothiocyanate (AITC); 30 minute antagonist incubation. An outline of the steps: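 Tetracycline-induced CHO-TREx cells stably expressing human TRPA1, loaded with 4 μM Fluo-3 AM, preincubated 30 min with compound (serial dilution typically from 10 μM, three-fold steps) in HEPES saline pH 7.4. Fluorescence change over 3 min after 15 μM AITC; IC50 from Hill fit versus no-antagonist and 10 μM ruthenium red controls.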
`O=C(NCc1cc(-c2ccc(C(F)(F)F)cc2)nc(N2CCN(Cc3cccnc3)CC2)c1)[C@@H]1CC(F)(F)CN1S(=O)(=O)c1ccc(F)cc1` [Example 363, 4,4-Difluoro-1-[(4-fluorophenyl)sulfonyl]-N-({2-[4-(pyridin-3-ylmethyl)piperazin-1-yl]-6-[4-(trifluoromethyl)phenyl]pyridin-4-yl}methyl)-L-prolinamide]: the concentration for half-maximal inhibition (IC50) was 4870 nM.

As for `O=C(NCc1cc(NCc2ccncc2)nc(-c2ccc(C(F)(F)F)cc2)c1)[C@@H]1CCCN1S(=O)(=O)c1ccc(Cl)s1` [Example 364, 1-[(5-Chlorothiophen-2-yl)sulfonyl]-N-({2-[(pyridin-4-ylmethyl)amino]-6-[4-(trifluoromethyl)phenyl]pyridin-4-yl}methyl)-L-prolinamide], the IC50 was 2730 nM.

Consider `O=C(NCc1cc(-c2ccc(C(F)(F)F)cc2)nc(N2CCN(Cc3cccnc3)CC2)c1)[C@@H]1C=CCN1S(=O)(=O)c1ccc(F)cc1` [Example 365, (2S)-1-[(4-Fluorophenyl)sulfonyl]-N-({2-[4-(pyridin-3-ylmethyl)piperazin-1-yl]-6-[4-(trifluoromethyl)phenyl]pyridin-4-yl}methyl)-2,5-dihydro-1H-pyrrole-2-carboxamide], for which the half-maximal inhibitory concentration (IC50) amounted to 1690 nM.

As for `O=C(NCc1cc(-c2ccc(C(F)(F)F)cc2)nc(N2CCN(Cc3cccnc3)CC2)c1)[C@@H]1CC(F)(F)CN1S(=O)(=O)c1ccc(Cl)s1` [Example 366], the IC50 was 1650 nM.

As to `O=C(NCc1cc(-c2ccc(C(F)(F)F)cc2)nc(N2CCN(Cc3ccccc3)CC2)c1)[C@@H]1CCCN1S(=O)(=O)c1ccc(Cl)s1` [Example 367, N-({2-(4-Benzylpiperazin-1-yl)-6-[4-(trifluoromethyl)phenyl]pyridin-4-yl}methyl)-1-[(5-chlorothiophen-2-yl)sulfonyl]-L-prolinamide], the 50% inhibitory concentration (IC50) was 18 nM.

For the compound `O=C(NCc1cc(-c2ccc(C(F)(F)F)cc2)nc(N2CCN(Cc3ccccc3)CC2)c1)[C@@H]1C=CCN1S(=O)(=O)c1ccc(Cl)s1` [Example 368, (2S)—N-({2-(4-Benzylpiperazin-1-yl)-6-[4-(trifluoromethyl)phenyl]pyridin-4-yl}methyl)-1-[(5-chlorothiophen-2-yl)sulfonyl]-2,5-dihydro-1H-pyrrole-2-carboxamide], the concentration for half-maximal inhibition (IC50) came out at 418 nM.

On to `CC(C)CN1CCN(c2cc(CNC(=O)[C@@H]3CCCN3S(=O)(=O)c3ccc(Cl)s3)cc(-c3ccc(C(F)(F)F)cc3)n2)CC1` [Example 369, 1-[(5-Chlorothiophen-2-yl)sulfonyl]-N-({2-[4-(2-methylpropyl)piperazin-1-yl]-6-[4-(trifluoromethyl)phenyl]pyridin-4-yl}methyl)-L-prolinamide], for which the IC50 turned out to be 79 nM.

For the compound `CC(C)CN1CCN(c2cc(CNC(=O)[C@@H]3CCCN3S(=O)(=O)c3ccc(F)cc3)cc(-c3ccc(C(F)(F)F)cc3)n2)CC1` [Example 370, 1-[(4-Fluorophenyl)sulfonyl]-N-({2-[4-(2-methylpropyl)piperazin-1-yl]-6-[4-(trifluoromethyl)phenyl]pyridin-4-yl}methyl)-L-prolinamide], the half-maximal inhibitory concentration (IC50) was determined as 115 nM.

As to `O=C(NCc1cc(NCc2cccnc2)nc(-c2ccc(C(F)(F)F)cc2)c1)[C@@H]1CCCN1S(=O)(=O)c1ccc(Cl)s1` [Example 371, 1-[(5-Chlorothiophen-2-yl)sulfonyl]-N-({2-[(pyridin-3-ylmethyl)amino]-6-[4-(trifluoromethyl)phenyl]pyridin-4-yl}methyl)-L-prolinamide], the concentration for half-maximal inhibition (IC50) was determined as 2060 nM.

Turning to `CNc1cc(CNC(=O)[C@@H]2C=CCN2S(=O)(=O)c2ccc(F)cc2)cc(-c2ccc(C(F)(F)F)cc2)n1` [Example 372, (2S)-1-[(4-Fluorophenyl)sulfonyl]-N-({2-(methylamino)-6-[4-(trifluoromethyl)phenyl]pyridin-4-yl}methyl)-2,5-dihydro-1H-pyrrole-2-carboxamide], the IC50 was 1610 nM.

Take `O=C(NCc1cc(-c2ccc(C(F)(F)F)cc2)nc(N2CCN(Cc3ccccc3)CC2)c1)[C@@H]1CCCN1S(=O)(=O)c1ccc(F)cc1` [Example 373, N-({2-(4-Benzylpiperazin-1-yl)-6-[4-(trifluoromethyl)phenyl]pyridin-4-yl}methyl)-1-[(4-fluorophenyl)sulfonyl]-L-prolinamide]: the IC50 worked out at 43 nM.

In the case of `O=C(NCc1cc(NCc2ccccn2)nc(-c2ccc(C(F)(F)F)cc2)c1)[C@@H]1CC(F)(F)CN1S(=O)(=O)c1ccc(F)cc1` [Example 374, 4,4-Difluoro-1-[(4-fluorophenyl)sulfonyl]-N-({2-[(pyridin-2-ylmethyl)amino]-6-[4-(trifluoromethyl)phenyl]pyridin-4-yl}methyl)-L-prolinamide], the half-maximal inhibitory concentration (IC50) turned out to be 2090 nM.

On to `O=C(NCc1cc(-c2ccc(C(F)(F)F)cc2)nc(N2CCN(Cc3ccccn3)CC2)c1)[C@@H]1CC(F)(F)CN1S(=O)(=O)c1ccc(Cl)s1` [Example 375, 1-[(5-Chlorothiophen-2-yl)sulfonyl]-4,4-difluoro-N-({2-[4-(pyridin-2-ylmethyl)piperazin-1-yl]-6-[4-(trifluoromethyl)phenyl]pyridin-4-yl}methyl)-L-prolinamide], for which the IC50 was found to be 1940 nM.

Consider `CN(C)c1cc(CNC(=O)[C@@H]2CC(F)(F)CN2S(=O)(=O)c2ccc(Cl)s2)cc(-c2ccc(C(F)(F)F)cc2)n1` [Example 376, 1-[(5-Chlorothiophen-2-yl)sulfonyl]-N-({2-(dimethylamino)-6-[4-(trifluoromethyl)phenyl]pyridin-4-yl}methyl)-4,4-difluoro-L-prolinamide], for which the IC50 was 241 nM.

As for `O=C(NCc1cc(-c2ccc(C(F)(F)F)cc2)nc(N2CCN(Cc3ccccc3)CC2)c1)[C@@H]1CC(F)(F)CN1S(=O)(=O)c1ccc(Cl)s1` [Example 377, N-({2-(4-Benzylpiperazin-1-yl)-6-[4-(trifluoromethyl)phenyl]pyridin-4-yl}methyl)-1-[(5-chlorothiophen-2-yl)sulfonyl]-4,4-difluoro-L-prolinamide], the IC50 came out at 4710 nM.

As to `CNc1cc(CNC(=O)[C@@H]2C=CCN2S(=O)(=O)c2ccc(Cl)s2)cc(-c2ccc(C(F)(F)F)cc2)n1` [Example 379, (2S)-1-[(5-Chlorothiophen-2-yl)sulfonyl]-N-({2-(methylamino)-6-[4-(trifluoromethyl)phenyl]pyridin-4-yl}methyl)-2,5-dihydro-1H-pyrrole-2-carboxamide], the IC50 turned out to be 380 nM.

With `O=C(NCc1cc(NCc2ccccn2)nc(-c2ccc(C(F)(F)F)cc2)c1)[C@@H]1C=CCN1S(=O)(=O)c1ccc(F)cc1` [Example 380, (2S)-1-[(4-Fluorophenyl)sulfonyl]-N-({2-[(pyridin-2-ylmethyl)amino]-6-[4-(trifluoromethyl)phenyl]pyridin-4-yl}methyl)-2,5-dihydro-1H-pyrrole-2-carboxamide], the half-inhibitory concentration (IC50) was 523 nM.

In the case of `O=C(NCc1cc(-c2ccc(C(F)(F)F)cc2)nc(N2CCN(Cc3ccncc3)CC2)c1)[C@@H]1CC(F)(F)CN1S(=O)(=O)c1ccc(Cl)s1` [Example 381, 1-[(5-Chlorothiophen-2-yl)sulfonyl]-4,4-difluoro-N-({2-[4-(pyridin-4-ylmethyl)piperazin-1-yl]-6-[4-(trifluoromethyl)phenyl]pyridin-4-yl}methyl)-L-prolinamide], the IC50 was 729 nM.

Consider `O=C(NCc1cc(NCc2ccccn2)nc(-c2ccc(C(F)(F)F)cc2)c1)[C@@H]1CC(F)(F)CN1S(=O)(=O)c1ccc(Cl)s1` [Example 382, 1-[(5-Chlorothiophen-2-yl)sulfonyl]-4,4-difluoro-N-({2-[(pyridin-2-ylmethyl)amino]-6-[4-(trifluoromethyl)phenyl]pyridin-4-yl}methyl)-L-prolinamide], for which the concentration for half-maximal inhibition (IC50) was determined as 5090 nM.

Regarding `CC(C)CN1CCN(c2cc(CNC(=O)[C@@H]3CC(F)(F)CN3S(=O)(=O)c3ccc(Cl)s3)cc(-c3ccc(C(F)(F)F)cc3)n2)CC1` [Example 383, 1-[(5-Chlorothiophen-2-yl)sulfonyl]-4,4-difluoro-N-({2-[4-(2-methylpropyl)piperazin-1-yl]-6-[4-(trifluoromethyl)phenyl]pyridin-4-yl}methyl)-L-prolinamide], the IC50 turned out to be 488 nM.

For `CNc1cc(CNC(=O)[C@@H]2CC(F)(F)CN2S(=O)(=O)c2ccc(Cl)s2)cc(-c2ccc(C(F)(F)F)cc2)n1` [Example 384, 1-[(5-Chlorothiophen-2-yl)sulfonyl]-4,4-difluoro-N-({2-(methylamino)-6-[4-(trifluoromethyl)phenyl]pyridin-4-yl}methyl)-L-prolinamide], the half-inhibitory concentration (IC50) came out at 2220 nM.

As to `O=C(NCc1cc(NCc2ccncc2)nc(-c2ccc(C(F)(F)F)cc2)c1)[C@@H]1CCCN1S(=O)(=O)c1ccc(F)cc1` [Example 385, 1-[(4-Fluorophenyl)sulfonyl]-N-({2-[(pyridin-4-ylmethyl)amino]-6-[4-(trifluoromethyl)phenyl]pyridin-4-yl}methyl)-L-prolinamide], the concentration for half-maximal inhibition (IC50) was found to be 978 nM.

As to `CC(C)CN1CCN(c2cc(CNC(=O)[C@@H]3CC(F)(F)CN3S(=O)(=O)c3ccc(F)cc3)cc(-c3ccc(C(F)(F)F)cc3)n2)CC1` [Example 386, 4,4-Difluoro-1-[(4-fluorophenyl)sulfonyl]-N-({2-[4-(2-methylpropyl)piperazin-1-yl]-6-[4-(trifluoromethyl)phenyl]pyridin-4-yl}methyl)-L-prolinamide], the IC50 came to 311 nM.

Regarding `O=C(NCc1cc(-c2ccc(C(F)(F)F)cc2)nc(N2CCN(Cc3ccccn3)CC2)c1)[C@@H]1CC(F)(F)CN1S(=O)(=O)c1ccc(F)cc1` [Example 387, 4,4-Difluoro-1-[(4-fluorophenyl)sulfonyl]-N-({2-[4-(pyridin-2-ylmethyl)piperazin-1-yl]-6-[4-(trifluoromethyl)phenyl]pyridin-4-yl}methyl)-L-prolinamide], the half-maximal inhibitory concentration (IC50) came out at 3050 nM.
